# Data published in ChEMBL document CHEMBL1145498, “A systematic interaction map of validated kinase inhibitors with Ser/Thr kinases” (Proc Natl Acad Sci U S A, 2007).
# Target: Ribosomal protein S6 kinase alpha-3 (Homo sapiens) (UniProt P51812)
# Sequence (P51812 whole entry): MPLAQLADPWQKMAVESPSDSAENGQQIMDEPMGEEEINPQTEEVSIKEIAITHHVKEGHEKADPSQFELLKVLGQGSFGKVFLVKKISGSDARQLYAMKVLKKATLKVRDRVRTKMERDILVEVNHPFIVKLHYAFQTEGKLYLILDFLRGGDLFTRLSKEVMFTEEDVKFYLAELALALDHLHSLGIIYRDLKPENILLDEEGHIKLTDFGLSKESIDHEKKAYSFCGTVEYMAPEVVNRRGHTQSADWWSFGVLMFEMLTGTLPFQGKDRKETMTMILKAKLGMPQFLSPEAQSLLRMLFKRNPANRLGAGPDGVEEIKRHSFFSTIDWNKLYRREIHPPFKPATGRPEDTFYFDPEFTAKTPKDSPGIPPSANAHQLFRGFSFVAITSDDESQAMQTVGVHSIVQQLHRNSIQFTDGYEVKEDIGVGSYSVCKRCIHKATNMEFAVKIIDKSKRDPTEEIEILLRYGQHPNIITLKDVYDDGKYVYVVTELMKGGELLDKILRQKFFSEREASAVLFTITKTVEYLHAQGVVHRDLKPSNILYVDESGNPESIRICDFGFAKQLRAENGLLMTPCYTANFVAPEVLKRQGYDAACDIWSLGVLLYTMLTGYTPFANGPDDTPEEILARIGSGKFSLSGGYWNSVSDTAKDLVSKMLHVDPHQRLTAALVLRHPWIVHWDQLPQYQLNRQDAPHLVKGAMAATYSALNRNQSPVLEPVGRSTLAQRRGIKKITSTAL
row,SMILES,ΔTm [°C]
1,CN(C)c1ncnc2nc[nH]c12 [DIMETHYLADENINE],0.8
2,NCCNS(=O)(=O)c1cccc2c(Cl)cccc12,0.2
3,Cn1cnc2c(NCc3ccccc3)nc(NCCO)nc21 [OLOMOUCINE],-0.2
4,O=C1Nc2ccccc2/C1=C/c1cnc[nH]1,1
5,O=c1cc(N2CCOCC2)oc2c1ccc1ccccc12,0.3
6,N#CCCc1ccc2c(c1)-c1[nH]c3ccc([N+](=O)[O-])cc3c1CC(=O)N2 [ALSTERPAULLONE 2],1.4

# Target: Mitogen-activated protein kinase 11 (Homo sapiens, UniProt Q15759)
# Sequence (Q15759 whole entry): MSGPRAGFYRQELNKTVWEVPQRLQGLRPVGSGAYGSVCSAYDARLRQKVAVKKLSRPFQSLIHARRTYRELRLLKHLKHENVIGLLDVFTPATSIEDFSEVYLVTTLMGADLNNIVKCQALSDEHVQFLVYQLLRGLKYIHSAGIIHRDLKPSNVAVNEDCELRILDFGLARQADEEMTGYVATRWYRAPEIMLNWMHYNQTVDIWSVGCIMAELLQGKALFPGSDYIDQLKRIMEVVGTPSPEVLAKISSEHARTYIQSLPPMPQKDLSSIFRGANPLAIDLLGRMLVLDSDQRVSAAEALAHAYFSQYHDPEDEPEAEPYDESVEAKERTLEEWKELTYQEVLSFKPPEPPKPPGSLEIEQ
row,SMILES,ΔTm [°C]
1,CN(C)c1ncnc2nc[nH]c12 [DIMETHYLADENINE],0.1
2,NCCNS(=O)(=O)c1cccc2c(Cl)cccc12,-0.2
3,Cn1cnc2c(NCc3ccccc3)nc(NCCO)nc21 [OLOMOUCINE],-0.1
4,O=C1Nc2ccccc2/C1=C/c1cnc[nH]1,0.4
5,O=c1cc(N2CCOCC2)oc2c1ccc1ccccc12,1.1
6,N#CCCc1ccc2c(c1)-c1[nH]c3ccc([N+](=O)[O-])cc3c1CC(=O)N2 [ALSTERPAULLONE 2],0.5

# Target: Calcium/calmodulin-dependent protein kinase type 1D (Homo sapiens) (UniProt Q8IU85)
# Sequence (Q8IU85 whole entry, looked up): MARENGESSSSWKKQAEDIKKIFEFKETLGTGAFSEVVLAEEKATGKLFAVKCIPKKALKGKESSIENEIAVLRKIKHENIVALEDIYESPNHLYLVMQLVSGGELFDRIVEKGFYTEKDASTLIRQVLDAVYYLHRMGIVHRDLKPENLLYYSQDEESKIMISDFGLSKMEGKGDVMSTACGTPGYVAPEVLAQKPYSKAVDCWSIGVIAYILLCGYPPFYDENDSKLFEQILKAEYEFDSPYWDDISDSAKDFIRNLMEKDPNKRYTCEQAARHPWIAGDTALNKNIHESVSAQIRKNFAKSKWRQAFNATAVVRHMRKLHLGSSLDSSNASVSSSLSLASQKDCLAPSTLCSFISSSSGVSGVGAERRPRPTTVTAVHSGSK
row,SMILES,ΔTm [°C]
1,CN(C)c1ncnc2nc[nH]c12 [DIMETHYLADENINE],0
2,NCCNS(=O)(=O)c1cccc2c(Cl)cccc12,0
3,Cn1cnc2c(NCc3ccccc3)nc(NCCO)nc21 [OLOMOUCINE],-0.1
4,O=C1Nc2ccccc2/C1=C/c1cnc[nH]1,0.7
5,O=c1cc(N2CCOCC2)oc2c1ccc1ccccc12,0
6,N#CCCc1ccc2c(c1)-c1[nH]c3ccc([N+](=O)[O-])cc3c1CC(=O)N2 [ALSTERPAULLONE 2],0.6

# Target: Glycogen synthase kinase-3 beta (Homo sapiens, UniProt P49841)
# Sequence (P49841 whole entry, looked up): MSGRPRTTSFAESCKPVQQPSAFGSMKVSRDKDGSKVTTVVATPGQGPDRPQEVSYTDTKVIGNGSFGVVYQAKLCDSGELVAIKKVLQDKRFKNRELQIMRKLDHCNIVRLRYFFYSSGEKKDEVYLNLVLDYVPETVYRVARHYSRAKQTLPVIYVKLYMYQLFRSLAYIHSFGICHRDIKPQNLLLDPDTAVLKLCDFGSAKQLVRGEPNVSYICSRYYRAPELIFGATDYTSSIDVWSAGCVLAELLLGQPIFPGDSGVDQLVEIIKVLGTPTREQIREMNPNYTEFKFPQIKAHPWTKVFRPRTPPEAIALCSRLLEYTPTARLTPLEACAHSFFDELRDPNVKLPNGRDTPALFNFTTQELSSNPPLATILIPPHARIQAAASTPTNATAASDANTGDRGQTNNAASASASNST
row,SMILES,ΔTm [°C]
1,CN(C)c1ncnc2nc[nH]c12 [DIMETHYLADENINE],0.7
2,NCCNS(=O)(=O)c1cccc2c(Cl)cccc12,0.1
3,Cn1cnc2c(NCc3ccccc3)nc(NCCO)nc21 [OLOMOUCINE],0.1
4,O=C1Nc2ccccc2/C1=C/c1cnc[nH]1,7.1
5,O=c1cc(N2CCOCC2)oc2c1ccc1ccccc12,1.1
6,N#CCCc1ccc2c(c1)-c1[nH]c3ccc([N+](=O)[O-])cc3c1CC(=O)N2 [ALSTERPAULLONE 2],11.8

# Target: Dual specificity protein kinase CLK1 (Homo sapiens) (UniProt P49759)
# Sequence (P49759 whole entry, looked up): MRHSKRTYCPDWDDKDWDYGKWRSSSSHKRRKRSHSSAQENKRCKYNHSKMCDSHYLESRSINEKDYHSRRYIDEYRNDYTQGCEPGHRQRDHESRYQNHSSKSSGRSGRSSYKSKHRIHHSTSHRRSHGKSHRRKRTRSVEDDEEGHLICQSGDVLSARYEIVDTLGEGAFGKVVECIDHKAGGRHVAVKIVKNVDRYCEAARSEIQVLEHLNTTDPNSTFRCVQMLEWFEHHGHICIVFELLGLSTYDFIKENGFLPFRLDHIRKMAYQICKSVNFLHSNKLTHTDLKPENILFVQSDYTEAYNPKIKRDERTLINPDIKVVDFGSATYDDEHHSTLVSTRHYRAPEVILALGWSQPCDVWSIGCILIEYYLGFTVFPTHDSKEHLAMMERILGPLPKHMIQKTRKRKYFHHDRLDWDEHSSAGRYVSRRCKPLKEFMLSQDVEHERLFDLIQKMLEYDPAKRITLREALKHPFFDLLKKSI
row,SMILES,ΔTm [°C]
1,CN(C)c1ncnc2nc[nH]c12 [DIMETHYLADENINE],1.3
2,NCCNS(=O)(=O)c1cccc2c(Cl)cccc12,0.9
3,Cn1cnc2c(NCc3ccccc3)nc(NCCO)nc21 [OLOMOUCINE],-0.2
4,O=C1Nc2ccccc2/C1=C/c1cnc[nH]1,3.3
5,O=c1cc(N2CCOCC2)oc2c1ccc1ccccc12,0.8
6,N#CCCc1ccc2c(c1)-c1[nH]c3ccc([N+](=O)[O-])cc3c1CC(=O)N2 [ALSTERPAULLONE 2],3.1

# Target: Serine/threonine-protein kinase 25 (Homo sapiens) (UniProt O00506)
# Sequence (O00506 whole entry, looked up): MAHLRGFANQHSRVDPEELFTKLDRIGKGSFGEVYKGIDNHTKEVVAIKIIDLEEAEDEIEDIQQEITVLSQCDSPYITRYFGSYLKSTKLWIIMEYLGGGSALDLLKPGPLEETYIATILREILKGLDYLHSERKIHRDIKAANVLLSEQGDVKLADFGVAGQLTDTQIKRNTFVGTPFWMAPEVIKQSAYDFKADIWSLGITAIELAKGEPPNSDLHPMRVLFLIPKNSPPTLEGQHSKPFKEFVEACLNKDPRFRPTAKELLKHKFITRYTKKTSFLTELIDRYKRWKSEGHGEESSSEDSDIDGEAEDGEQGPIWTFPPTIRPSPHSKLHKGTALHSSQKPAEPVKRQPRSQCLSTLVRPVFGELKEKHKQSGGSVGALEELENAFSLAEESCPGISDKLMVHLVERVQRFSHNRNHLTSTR
row,SMILES,ΔTm [°C]
1,CN(C)c1ncnc2nc[nH]c12 [DIMETHYLADENINE],0.9
2,NCCNS(=O)(=O)c1cccc2c(Cl)cccc12,-0.2
3,Cn1cnc2c(NCc3ccccc3)nc(NCCO)nc21 [OLOMOUCINE],0
4,O=C1Nc2ccccc2/C1=C/c1cnc[nH]1,6.3
5,O=c1cc(N2CCOCC2)oc2c1ccc1ccccc12,0.6
6,N#CCCc1ccc2c(c1)-c1[nH]c3ccc([N+](=O)[O-])cc3c1CC(=O)N2 [ALSTERPAULLONE 2],4.2

# Target: T1, Serine/threonine-protein kinase PLK4 (Homo sapiens) (UniProt O00444)
# T1 sequence (whole entry): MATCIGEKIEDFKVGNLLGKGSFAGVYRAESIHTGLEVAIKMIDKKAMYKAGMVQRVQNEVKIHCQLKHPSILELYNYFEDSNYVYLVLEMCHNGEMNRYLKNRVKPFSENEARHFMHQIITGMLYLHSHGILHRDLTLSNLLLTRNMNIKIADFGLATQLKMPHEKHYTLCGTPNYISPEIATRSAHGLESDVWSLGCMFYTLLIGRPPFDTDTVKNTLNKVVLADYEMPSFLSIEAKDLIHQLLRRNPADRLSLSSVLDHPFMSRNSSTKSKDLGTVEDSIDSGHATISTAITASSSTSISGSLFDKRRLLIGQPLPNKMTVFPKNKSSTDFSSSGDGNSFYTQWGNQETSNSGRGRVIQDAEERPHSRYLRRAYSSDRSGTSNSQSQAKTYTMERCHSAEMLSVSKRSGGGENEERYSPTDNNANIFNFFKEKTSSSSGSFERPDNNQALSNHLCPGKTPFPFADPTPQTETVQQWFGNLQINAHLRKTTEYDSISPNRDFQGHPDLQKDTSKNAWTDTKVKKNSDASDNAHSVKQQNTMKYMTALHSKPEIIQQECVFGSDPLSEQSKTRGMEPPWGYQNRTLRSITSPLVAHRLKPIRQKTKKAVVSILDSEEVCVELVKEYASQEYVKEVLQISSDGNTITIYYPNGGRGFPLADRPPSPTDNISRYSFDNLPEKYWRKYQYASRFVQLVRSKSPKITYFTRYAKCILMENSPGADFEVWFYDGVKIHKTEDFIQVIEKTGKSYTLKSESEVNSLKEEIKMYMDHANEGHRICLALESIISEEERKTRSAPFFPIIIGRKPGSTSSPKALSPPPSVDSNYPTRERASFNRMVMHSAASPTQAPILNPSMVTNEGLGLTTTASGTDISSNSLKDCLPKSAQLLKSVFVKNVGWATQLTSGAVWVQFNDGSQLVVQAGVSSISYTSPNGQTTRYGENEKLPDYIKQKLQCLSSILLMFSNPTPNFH
row,SMILES,ΔTm [°C]
1,CN(C)c1ncnc2nc[nH]c12 [DIMETHYLADENINE],1.3
2,NCCNS(=O)(=O)c1cccc2c(Cl)cccc12,0.6
3,Cn1cnc2c(NCc3ccccc3)nc(NCCO)nc21 [OLOMOUCINE],0.2
4,O=C1Nc2ccccc2/C1=C/c1cnc[nH]1,5.8
5,O=c1cc(N2CCOCC2)oc2c1ccc1ccccc12,0.2
6,N#CCCc1ccc2c(c1)-c1[nH]c3ccc([N+](=O)[O-])cc3c1CC(=O)N2 [ALSTERPAULLONE 2],10.3

# Target: Cyclin-dependent kinase 6 (Homo sapiens) (UniProt Q00534)
# Sequence (Q00534 whole entry): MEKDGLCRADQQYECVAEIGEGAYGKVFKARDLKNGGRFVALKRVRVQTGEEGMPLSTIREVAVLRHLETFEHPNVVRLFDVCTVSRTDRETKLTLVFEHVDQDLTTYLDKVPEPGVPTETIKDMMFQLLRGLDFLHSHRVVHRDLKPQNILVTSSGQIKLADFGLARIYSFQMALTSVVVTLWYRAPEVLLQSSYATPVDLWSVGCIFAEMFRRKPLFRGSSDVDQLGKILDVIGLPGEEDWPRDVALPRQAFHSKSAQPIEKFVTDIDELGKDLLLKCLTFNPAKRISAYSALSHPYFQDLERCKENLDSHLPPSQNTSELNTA
row,SMILES,ΔTm [°C]
1,CN(C)c1ncnc2nc[nH]c12 [DIMETHYLADENINE],0.1
2,NCCNS(=O)(=O)c1cccc2c(Cl)cccc12,-0.1
3,Cn1cnc2c(NCc3ccccc3)nc(NCCO)nc21 [OLOMOUCINE],0
4,O=C1Nc2ccccc2/C1=C/c1cnc[nH]1,4.4
5,O=c1cc(N2CCOCC2)oc2c1ccc1ccccc12,0.2
6,N#CCCc1ccc2c(c1)-c1[nH]c3ccc([N+](=O)[O-])cc3c1CC(=O)N2 [ALSTERPAULLONE 2],3.2

# Target: Serine/threonine-protein kinase PAK 5 (Homo sapiens) (UniProt Q9P286)
row,SMILES,ΔTm [°C]
1,CN(C)c1ncnc2nc[nH]c12 [DIMETHYLADENINE],0
2,NCCNS(=O)(=O)c1cccc2c(Cl)cccc12,0.1
3,Cn1cnc2c(NCc3ccccc3)nc(NCCO)nc21 [OLOMOUCINE],-0.1
4,O=C1Nc2ccccc2/C1=C/c1cnc[nH]1,0.7
5,O=c1cc(N2CCOCC2)oc2c1ccc1ccccc12,0
6,N#CCCc1ccc2c(c1)-c1[nH]c3ccc([N+](=O)[O-])cc3c1CC(=O)N2 [ALSTERPAULLONE 2],3.9

# Target: T2, 3-phosphoinositide-dependent protein kinase 1 (Homo sapiens) (UniProt O15530)
# T2 sequence (whole entry): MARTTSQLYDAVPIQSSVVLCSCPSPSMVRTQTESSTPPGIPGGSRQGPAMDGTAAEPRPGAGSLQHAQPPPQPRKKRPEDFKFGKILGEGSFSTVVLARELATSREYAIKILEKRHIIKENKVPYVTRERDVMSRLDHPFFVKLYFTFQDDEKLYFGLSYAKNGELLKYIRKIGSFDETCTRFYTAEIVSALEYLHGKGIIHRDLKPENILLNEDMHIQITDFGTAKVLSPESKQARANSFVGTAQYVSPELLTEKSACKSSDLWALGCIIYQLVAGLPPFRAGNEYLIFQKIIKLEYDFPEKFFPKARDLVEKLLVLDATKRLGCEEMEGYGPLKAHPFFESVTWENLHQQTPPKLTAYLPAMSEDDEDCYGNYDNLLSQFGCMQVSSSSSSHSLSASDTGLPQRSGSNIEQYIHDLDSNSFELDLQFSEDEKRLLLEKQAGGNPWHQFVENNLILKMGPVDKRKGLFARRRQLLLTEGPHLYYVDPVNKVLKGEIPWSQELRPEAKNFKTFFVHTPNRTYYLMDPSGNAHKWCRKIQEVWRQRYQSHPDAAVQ
row,SMILES,ΔTm [°C]
1,CN(C)c1ncnc2nc[nH]c12 [DIMETHYLADENINE],0.1
2,NCCNS(=O)(=O)c1cccc2c(Cl)cccc12,-0.2
3,Cn1cnc2c(NCc3ccccc3)nc(NCCO)nc21 [OLOMOUCINE],0
4,O=C1Nc2ccccc2/C1=C/c1cnc[nH]1,1.3
5,O=c1cc(N2CCOCC2)oc2c1ccc1ccccc12,0
6,N#CCCc1ccc2c(c1)-c1[nH]c3ccc([N+](=O)[O-])cc3c1CC(=O)N2 [ALSTERPAULLONE 2],-0.4

# Target: Serine/threonine-protein kinase 26 (Homo sapiens) (UniProt Q9P289)
# Sequence (Q9P289 2-416 limits assumed): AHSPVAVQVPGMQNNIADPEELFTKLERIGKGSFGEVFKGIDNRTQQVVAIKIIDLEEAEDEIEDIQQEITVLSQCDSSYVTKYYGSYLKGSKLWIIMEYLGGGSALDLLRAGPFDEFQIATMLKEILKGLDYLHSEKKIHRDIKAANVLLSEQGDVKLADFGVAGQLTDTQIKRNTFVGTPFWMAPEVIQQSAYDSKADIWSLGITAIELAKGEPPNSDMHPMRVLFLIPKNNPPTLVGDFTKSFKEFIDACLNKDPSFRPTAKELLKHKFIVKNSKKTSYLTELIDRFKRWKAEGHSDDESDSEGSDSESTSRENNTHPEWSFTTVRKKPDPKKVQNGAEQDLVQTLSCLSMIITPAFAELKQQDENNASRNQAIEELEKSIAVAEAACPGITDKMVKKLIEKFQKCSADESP
row,SMILES,ΔTm [°C]
1,CN(C)c1ncnc2nc[nH]c12 [DIMETHYLADENINE],0
2,NCCNS(=O)(=O)c1cccc2c(Cl)cccc12,-0.1
3,Cn1cnc2c(NCc3ccccc3)nc(NCCO)nc21 [OLOMOUCINE],0
4,O=C1Nc2ccccc2/C1=C/c1cnc[nH]1,4.5
5,O=c1cc(N2CCOCC2)oc2c1ccc1ccccc12,0.2
6,N#CCCc1ccc2c(c1)-c1[nH]c3ccc([N+](=O)[O-])cc3c1CC(=O)N2 [ALSTERPAULLONE 2],2.8

# Target: Cyclin-dependent kinase-like 1 (Homo sapiens) (UniProt Q00532)
# Sequence (Q00532 whole entry): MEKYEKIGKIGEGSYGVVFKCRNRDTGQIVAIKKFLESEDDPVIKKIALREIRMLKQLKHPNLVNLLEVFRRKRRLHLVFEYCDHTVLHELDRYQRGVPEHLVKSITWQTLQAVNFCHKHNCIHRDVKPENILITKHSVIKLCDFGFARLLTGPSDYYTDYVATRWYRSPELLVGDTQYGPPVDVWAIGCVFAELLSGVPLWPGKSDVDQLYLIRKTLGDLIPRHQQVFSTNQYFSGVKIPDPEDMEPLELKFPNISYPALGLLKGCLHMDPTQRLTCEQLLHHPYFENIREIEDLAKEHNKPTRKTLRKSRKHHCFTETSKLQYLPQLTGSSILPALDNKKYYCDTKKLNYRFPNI
row,SMILES,ΔTm [°C]
1,CN(C)c1ncnc2nc[nH]c12 [DIMETHYLADENINE],0
2,NCCNS(=O)(=O)c1cccc2c(Cl)cccc12,-0.1
3,Cn1cnc2c(NCc3ccccc3)nc(NCCO)nc21 [OLOMOUCINE],0
4,O=C1Nc2ccccc2/C1=C/c1cnc[nH]1,3.7
5,O=c1cc(N2CCOCC2)oc2c1ccc1ccccc12,0.1
6,N#CCCc1ccc2c(c1)-c1[nH]c3ccc([N+](=O)[O-])cc3c1CC(=O)N2 [ALSTERPAULLONE 2],0.5

# Target: STE20-like serine/threonine-protein kinase (Homo sapiens) (UniProt Q9H2G2)
row,SMILES,ΔTm [°C]
1,CN(C)c1ncnc2nc[nH]c12 [DIMETHYLADENINE],0.8
2,NCCNS(=O)(=O)c1cccc2c(Cl)cccc12,0.1
3,Cn1cnc2c(NCc3ccccc3)nc(NCCO)nc21 [OLOMOUCINE],0
4,O=C1Nc2ccccc2/C1=C/c1cnc[nH]1,3.3
5,O=c1cc(N2CCOCC2)oc2c1ccc1ccccc12,0.2
6,N#CCCc1ccc2c(c1)-c1[nH]c3ccc([N+](=O)[O-])cc3c1CC(=O)N2 [ALSTERPAULLONE 2],1.8

# Target: T3, Serine/threonine-protein kinase Nek2 (Homo sapiens) (UniProt P51955)
# T3 sequence (whole entry): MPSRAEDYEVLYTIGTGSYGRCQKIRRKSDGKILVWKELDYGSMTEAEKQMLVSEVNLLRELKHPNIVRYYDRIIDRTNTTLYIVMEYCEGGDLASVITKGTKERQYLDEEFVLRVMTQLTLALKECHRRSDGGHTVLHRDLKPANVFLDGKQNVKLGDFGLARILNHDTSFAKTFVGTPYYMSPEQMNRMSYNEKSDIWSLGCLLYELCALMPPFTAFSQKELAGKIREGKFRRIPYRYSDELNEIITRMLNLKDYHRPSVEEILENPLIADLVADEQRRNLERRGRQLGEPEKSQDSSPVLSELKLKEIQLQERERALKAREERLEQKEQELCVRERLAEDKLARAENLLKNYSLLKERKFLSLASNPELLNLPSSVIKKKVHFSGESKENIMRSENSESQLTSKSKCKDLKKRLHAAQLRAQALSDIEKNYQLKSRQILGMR
row,SMILES,ΔTm [°C]
1,CN(C)c1ncnc2nc[nH]c12 [DIMETHYLADENINE],0.8
2,NCCNS(=O)(=O)c1cccc2c(Cl)cccc12,0.7
3,Cn1cnc2c(NCc3ccccc3)nc(NCCO)nc21 [OLOMOUCINE],1.1
4,O=C1Nc2ccccc2/C1=C/c1cnc[nH]1,2
5,O=c1cc(N2CCOCC2)oc2c1ccc1ccccc12,0.6
6,N#CCCc1ccc2c(c1)-c1[nH]c3ccc([N+](=O)[O-])cc3c1CC(=O)N2 [ALSTERPAULLONE 2],2.2

# Target: Serine/threonine-protein kinase Chk2 (Homo sapiens, UniProt O96017)
# Sequence (O96017 whole entry): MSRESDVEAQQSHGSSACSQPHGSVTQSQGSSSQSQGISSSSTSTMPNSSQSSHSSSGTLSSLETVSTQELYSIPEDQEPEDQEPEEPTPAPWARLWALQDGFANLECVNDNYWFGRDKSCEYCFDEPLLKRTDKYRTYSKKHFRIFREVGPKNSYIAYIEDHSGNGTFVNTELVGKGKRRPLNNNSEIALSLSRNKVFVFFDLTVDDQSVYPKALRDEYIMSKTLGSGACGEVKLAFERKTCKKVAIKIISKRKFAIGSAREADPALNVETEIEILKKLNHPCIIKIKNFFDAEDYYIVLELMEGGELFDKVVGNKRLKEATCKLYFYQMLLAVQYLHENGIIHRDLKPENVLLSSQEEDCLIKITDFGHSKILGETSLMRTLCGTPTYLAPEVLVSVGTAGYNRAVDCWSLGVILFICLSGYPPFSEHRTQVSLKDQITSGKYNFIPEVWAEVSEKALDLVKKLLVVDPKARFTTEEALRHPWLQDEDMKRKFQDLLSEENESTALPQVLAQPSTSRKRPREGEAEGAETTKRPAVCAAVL
row,SMILES,ΔTm [°C]
1,CN(C)c1ncnc2nc[nH]c12 [DIMETHYLADENINE],0.5
2,NCCNS(=O)(=O)c1cccc2c(Cl)cccc12,0.2
3,Cn1cnc2c(NCc3ccccc3)nc(NCCO)nc21 [OLOMOUCINE],-0.6
4,O=C1Nc2ccccc2/C1=C/c1cnc[nH]1,3
5,O=c1cc(N2CCOCC2)oc2c1ccc1ccccc12,-0.3
6,N#CCCc1ccc2c(c1)-c1[nH]c3ccc([N+](=O)[O-])cc3c1CC(=O)N2 [ALSTERPAULLONE 2],8.2

# Target: Serine/threonine-protein kinase pim-1 (Homo sapiens) (UniProt P11309)
# Sequence (P11309 whole entry, looked up): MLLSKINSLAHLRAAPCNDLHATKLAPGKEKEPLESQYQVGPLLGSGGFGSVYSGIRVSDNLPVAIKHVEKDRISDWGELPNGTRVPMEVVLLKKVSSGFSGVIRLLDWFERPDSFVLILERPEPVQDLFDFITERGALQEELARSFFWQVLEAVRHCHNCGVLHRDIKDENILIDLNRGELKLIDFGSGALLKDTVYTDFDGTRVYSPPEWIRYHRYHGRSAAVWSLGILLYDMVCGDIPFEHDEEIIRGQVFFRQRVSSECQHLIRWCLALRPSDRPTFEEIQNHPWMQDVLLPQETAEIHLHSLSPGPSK
row,SMILES,ΔTm [°C]
1,CN(C)c1ncnc2nc[nH]c12 [DIMETHYLADENINE],0
2,NCCNS(=O)(=O)c1cccc2c(Cl)cccc12,2.9
3,Cn1cnc2c(NCc3ccccc3)nc(NCCO)nc21 [OLOMOUCINE],-1
4,O=C1Nc2ccccc2/C1=C/c1cnc[nH]1,3
5,O=c1cc(N2CCOCC2)oc2c1ccc1ccccc12,1.7
6,N#CCCc1ccc2c(c1)-c1[nH]c3ccc([N+](=O)[O-])cc3c1CC(=O)N2 [ALSTERPAULLONE 2],1.9
